Test results: US9062037B2, “Tazarotene derivatives” (Stiefel Laboratories, Inc., priority 2009, dated 2015)
Like-named read-outs stand apart in the source and are kept apart here.

Experiments:
[1] = HPLC analysis of mixtures of DUAC gel and TAZORAC cream (degradation of tazarotene in the presence of benzoyl peroxide); format: physicochemical; conditions: fresh samples; 35° C.; 4 hours
Description: DUAC® gel (1% clindamycin and 5% benzoyl peroxide marketed by Stiefel Laboratories, Inc.) and TAZORAC® cream (0.1% tazarotene marketed by Allergan, Inc.) have been successfully used to treat facial acne. However, these topical treatments are not approved for concomitant use. To study whether tazarotene is susceptible to oxidative decomposition by benzoyl peroxide, an in vitro laboratory study was conducted wherein a mixture of DUAC gel and TAZORAC cream was prepared.
Samples were prepared by taking equal portions of DUAC gel and TAZORAC cream and mixing them thoroughly at room temperature with a spatula in a suitable container to form a uniform mixture. The initial samples were analyzed immediately by HPLC. The other samples were placed into an oven at 35° C. and removed for analysis after one, two, four, six and eight hours. An allowance was made for product evaporation over the course of the study.

[2] = Stability in human plasma at room temperature; format: in vitro ADME
Description: (§1) Tazarotene, tazarotene sulfoxide and tazarotene benzoate were incubated at room temperature with human and rat plasma. The incubation was carried out in duplicate and samples were taken at specific time points for stability analyses (i) rat samples (0 hour, 2 hours and 4 hours) and (ii) human samples (0 hour, 2 hours, 4 hours and 8 hours). Samples were analyzed by LC-MS/MS.

in vitro = conditions: human, liver microsomes, pH 7.4, Half-life, HLM
Description: (§2) Hepatic microsomal reactions were carried out in microcentrifuge tubes in the following manner. Human liver microsomes (0.5 or 1.0 mg/ml protein), Test Article (1 or 10 μM), paraoxon (0, 10 or 100 μM), NADPH regenerating system (10 mM glucose-6-phosphate, 1 unit/ml glucose-6-phosphate dehydrogenase, 1 mM NADP^+), magnesium chloride (5 mM) in 0.1 M potassium phosphate buffer, pH 7.4 were incubated at 37° C. in a shaking water bath. Reactions were initiated with the addition of substrate with the exception of the zero-time incubations. The total reaction volume was 0.2 ml. The reactions were incubated for 15, 30, 45 or 60 minutes, terminated with 0.2 ml ice-cold acetonitrile and then placed on ice. For zero-time incubations, ice cold acetonitrile was added to the mixture containing microsomes, along with NADPH regenerating system, magnesium chloride in phosphate buffer and the Test Article. Each time point was carried out in triplicate.
(§3) Disappearance of Test Article and formation of metabolites following in vitro metabolism were determined by LC-MS/MS using multiple reaction monitoring. LightSight® software (Applied Biosystems, Foster City, Calif.) was used to generate the mass spectrometry methods and carry out the data mining.
(§4) Control incubations were carried out with the identical incubation procedures as described above with the following exceptions. In negative control reactions, microsomes were not included. […] Duplicate reactions with an initial concentration of 10 μM were incubated for 0 or 30 minutes. Microsomal metabolic stability of 7-ethoxycoumarin was determined by LC-MS/MS.

[3] = In vitro application of DUAC gel/TAZORAC cream mixture to split-thickness human skin; tazarotene and degradants quantified by LC/MS/MS; format: in vitro ADME
Description: An in vitro study was conducted to assess the formation of tazarotene degradants following the application of a mixture of DUAC gel and TAZORAC cream to human skin.
Equal portions of DUAC gel and TAZORAC cream were dispensed into a glass vial and mixed for approximately three minutes with a metal spatula to ensure a homogenous mixture. Samples of European DUAC gel and US DUAC gel were used in separate experiments. […] The test mixtures were then applied to the surface of split-thickness skin (˜0.25 mm) at a dose of 15.6 mg/cm^2 and spread evenly using a positive displacement pipette.
After 2 and 6 hours, the skin samples were washed, tape stripped twice, and then the epidermis was peeled from the dermis using a heat block. The skin samples were then extracted with acetonitrile overnight at 4° C. The distribution of tazarotene and its degradants within the epidermis, dermis and surface wash were quantified by LC/MS/MS with a 50 pg/mL LOQ. The experiments were performed under yellow light conditions. For the purposes of comparison, mixtures of DUAC gel and TAZORAC cream were also prepared and retained for stability testing at 0, 2 and 6 hour time points.

[4] = Stability in rat plasma at room temperature; format: in vitro ADME
Description: as §1

[5] = for k constant: HLM
Description: as §2, §3, §4

[6] = 1 μM initial concentration, Complete (with NADPH), 0 min
[7] = 1 μM initial concentration, Complete (with NADPH), 15 min
[8] = 1 μM initial concentration, Complete (with NADPH), 30 min
[9] = 1 μM initial concentration, Complete (with NADPH), 45 min
[10] = 1 μM initial concentration, Complete (with NADPH), 60 min
[11] = 1 μM initial concentration, Without NADPH, 0 min
[12] = 1 μM initial concentration, Without NADPH, 15 min
[13] = 1 μM initial concentration, Without NADPH, 30 min
[14] = 1 μM initial concentration, Without NADPH, 45 min
[15] = 1 μM initial concentration, Without NADPH, 60 min
[16] = 10 μM initial concentration, Complete (with NADPH), 0 min
[17] = 10 μM initial concentration, Complete (with NADPH), 15 min
[18] = 10 μM initial concentration, Complete (with NADPH), 30 min
[19] = 10 μM initial concentration, Complete (with NADPH), 45 min
[20] = 10 μM initial concentration, Complete (with NADPH), 60 min
[21] = 10 μM initial concentration, Without NADPH, 0 min
[22] = 10 μM initial concentration, Without NADPH, 15 min
[23] = 10 μM initial concentration, Without NADPH, 30 min
[24] = 10 μM initial concentration, Without NADPH, 45 min
[25] = 10 μM initial concentration, Without NADPH, 60 min

CCOC(=O)c1ccc(C#Cc2ccc3c(c2)C(C)(C)CC[S+]3[O-])nc1 (stereo not shown) [Tazarotene sulfoxide, 6-(4,4-Dimethyl-1-oxo-1λ^4-thiochroman-6-ylethynyl)nicotinic acid ethyl ester]
% Label Tazarotene Sulfoxide [1]: ~16 % Label | concentration in human plasma ([2]; 0 hour): 36.2 ng/mL | concentration in human plasma ([2]; 2 hours): 34.0 ng/mL | concentration in human plasma ([2]; 4 hours): 32.2 ng/mL | concentration in human plasma ([2]; 8 hours): 31.9 ng/mL | half-life at 1 µM (in vitro; Complete): 10.1 min | half-life at 1 µM (in vitro; Without NADPH): 8.9 min | half-life at 10 µM (in vitro; Complete): 10.7 min | half-life at 10 µM (in vitro; Without NADPH): 9.08 min | identified in the epidermis and dermis ([3]; after 2 hours of application of the DUAC/TAZORAC mixture to the skin): identified in the epidermis and dermis | quantity in stability samples at the 6 hour time point relative to the 2 hour time point ([3]; mixture of DUAC gel and TAZORAC cream retained for stability testing): doubled | concentration in rat plasma ([4]; 0 hour): 34.1 ng/mL | concentration in rat plasma ([4]; 2 hours): <LOD | concentration in rat plasma ([4]; 4 hours): <LOD | Test Article remaining, percent of initial concentration [5, 6]: 100% | Test Article remaining, percent of initial concentration [5, 7]: 25.6% | Test Article remaining, percent of initial concentration [5, 8]: 8.86% | Test Article remaining, percent of initial concentration [5, 9]: 4.24% | Test Article remaining, percent of initial concentration [5, 10]: 2.17% | Test Article remaining, percent of initial concentration [5, 11]: 100% | Test Article remaining, percent of initial concentration [5, 12]: 27.9% | Test Article remaining, percent of initial concentration [5, 13]: 8.40% | Test Article remaining, percent of initial concentration [5, 14]: 2.72% | Test Article remaining, percent of initial concentration [5, 15]: 1.11% | Test Article remaining, percent of initial concentration [5, 16]: 100% | Test Article remaining, percent of initial concentration [5, 17]: 30.9% | Test Article remaining, percent of initial concentration [5, 18]: 11.4% | Test Article remaining, percent of initial concentration [5, 19]: 4.80% | Test Article remaining, percent of initial concentration [5, 20]: 2.70% | Test Article remaining, percent of initial concentration [5, 21]: 100% | Test Article remaining, percent of initial concentration [5, 22]: 30.4% | Test Article remaining, percent of initial concentration [5, 23]: 8.96% | Test Article remaining, percent of initial concentration [5, 24]: 2.98% | Test Article remaining, percent of initial concentration [5, 25]: 1.18% | k constant ([5]; 1 μM, Complete): −0.0689 | k constant ([5]; 1 μM, Without NADPH): −0.0779 | k constant ([5]; 10 μM, Complete): −0.0647 | k constant ([5]; 10 μM, Without NADPH): −0.0763

CC1(C)CCSc2ccc(C#Cc3ccc(C(=O)O)cn3)cc21 [Tazarotenic acid]
half-life at 1 µM (in vitro; Complete): 108 min | half-life at 10 µM (in vitro; Complete): 147 min | detection of tazarotenic acid ([3]; under these experimental conditions): not detected | Test Article remaining, percent of initial concentration [5, 6]: 100% | Test Article remaining, percent of initial concentration [5, 7]: 89.9% | Test Article remaining, percent of initial concentration [5, 8]: 82.0% | Test Article remaining, percent of initial concentration [5, 9]: 75.8% | Test Article remaining, percent of initial concentration [5, 10]: 68.0% | Test Article remaining, percent of initial concentration [5, 11]: 100% | Test Article remaining, percent of initial concentration [5, 12]: 100% | Test Article remaining, percent of initial concentration [5, 13]: 101% | Test Article remaining, percent of initial concentration [5, 14]: 102% | Test Article remaining, percent of initial concentration [5, 15]: 101% | Test Article remaining, percent of initial concentration [5, 16]: 100% | Test Article remaining, percent of initial concentration [5, 17]: 93.1% | Test Article remaining, percent of initial concentration [5, 18]: 88.6% | Test Article remaining, percent of initial concentration [5, 19]: 77.8% | Test Article remaining, percent of initial concentration [5, 20]: 77.4% | Test Article remaining, percent of initial concentration [5, 21]: 100% | Test Article remaining, percent of initial concentration [5, 22]: 102% | Test Article remaining, percent of initial concentration [5, 23]: 99.0% | Test Article remaining, percent of initial concentration [5, 24]: 106% | Test Article remaining, percent of initial concentration [5, 25]: 102% | k constant ([5]; 1 μM, Complete): −0.0064 | k constant ([5]; 1 μM, Without NADPH): 0.0003 | k constant ([5]; 10 μM, Complete): −0.0047 | k constant ([5]; 10 μM, Without NADPH): 0.0006 | metabolized by human liver microsomes ([5]; in the absence of NADPH): not metabolized | metabolized by human liver microsomes to tazarotenic acid sulfoxide ([5]; in the presence of NADPH): slowly metabolized
